In patent publication US20030104007A1, “Pseudopterosin compounds of Symbiodinium spp isolated from Pseudopterogorgia elisabethae” (priority 2001, published 2003):

Columns and labels:
Tetrahymena thermophila = Tetrahymena thermophila phagocytic activity (India ink food vacuole formation); type: cell-based; settings: read-out: IC50, inhibition of phagocytic activity
Description: In Tetrahymena thermophila, PsA and elisabethadione were potent inhibitors of phagocytic activity with IC50 of 0.4 and 0.1 μM, respectively. A test compound may be assayed as follows. Log-phase Tetrahymena thermophila cultures are grown in 2% proteose peptone, 0.1% glucose at 25° C. A volume comprising 1×10^7 cells are centrifuged at 450 g for 5 minutes. The pellet is washed and resuspended in 3.15 ml of 50 mM TRIS-HCl buffer at pH 7.7. The test compound is prepared at a desired concentration in 0.4 ml volumes. For control samples, 0.4 ml of buffer is used. 0.45 ml of diluted India ink (1:25, v:v) is added to each drug preparation. At t=0, the drug/ink mixture is added to the Tetrahymena cells, and at t=10 min., […] samples of cell suspension are removed and fixed in 10% formaldehyde. At least 100 random cells from each sample are then examined in a light microscope. Phagocytic activity is assessed by calculating the ratio of cells with food vacuoles compared to the cells with no food vacuoles.

[1] = system: prostaglandin E2 production in zymosan-stimulated murine peritoneal macrophages; experiment: Prostaglandin E2 production in zymosan-stimulated murine peritoneal macrophages; type: cell-based; settings: read-out: IC50, inhibition of prostaglandin E2 production
[2] = system: leukotriene C4 production in zymosan-stimulated murine peritoneal macrophages; experiment: Leukotriene C4 production in zymosan-stimulated murine peritoneal macrophages; type: cell-based; settings: read-out: IC50, inhibition of leukotriene C4 production
[3] = system: PMA-induced mouse ear edema; experiment: Inhibition of PMA-induced inflammation (edema) of the mouse ear; type: in vivo; settings: administered topically
Description: A test compound is topically applied in acetone to the inside pinnae of the ears of mice in a solution containing the edema-causing irritant, phorbol 12-myristate 13-acetate (PMA). PMA alone (2 μg/ear) or in combination with the test compound is applied to left ears (5 mice per treatment group) and acetone is applied to all right ears. After 3 hour 20 minute incubation, the mice are euthanized, the ears are removed, and bores are taken and weighed. Edema is measured by subtracting the weight of the right ear (acetone control) from the weight of the left ear (treated). Results are recorded as % decreases (inhibition) or % increase (potentiation) in edema relative to the PMA control group edema. Test compounds are screened at 50 or 25 μg/ear.
This signaling mechanism may be coupled to phagosome formation. The endogenous production of eicosanoids and their role in phagosome formation may be evaluated by using […] as pharmacological probes and analyzing arachidonic acid products by conventional means.

Row | SMILES | IC50 (Tetrahymena thermophila) [nM] | IC50 [1] [µM] | IC50 [2] [nM] | ED50, reducing PMA-induced mouse ear edema [3] [μg/ear]
1 | CC(C)=C[C@H]1C[C@H](C)[C@H]2CC[C@H](C)c3c(O[C@@H]4OC[C@@H](O)[C@H](O)[C@H]4O)c(O)c(C)c1c32 [PsA, Pseudopterosin A] | 400 | 4 | 1000 | 8
2 | CC(C)=C[C@H]1C[C@H](C)[C@H]2CC[C@H](C)c3c(O)c(O[C@@H]4O[C@@H](C)[C@@H](O)[C@@H](O)[C@@H]4O)c(C)c1c32 [PsE, Pseudopterosin E] |  |  |  | 38
3 | CC(C)=CCC[C@H](C)[C@H]1CC[C@H](C)C2=C1C(=O)C(C)=C(O)C2=O [elisabethadione] | 100 |  |  | 
